Literature values in patent US20220257506A1, “Alkaline Drink” (WET HOLDINGS (GLOBAL) LIMITED, priority 2019, published 2022).

Columns and labels:
[1] = system: adrenal and gonadal steroidogenesis; details: humans, up to 80 mg/day, basal conditions
[2] = system: testicular endocrine function; details: dogs, very high doses
[3] = humans
[4] = acute administration, humans
[5] = not given; remark: listed apart in the source
[6] = acute dosing, murine stroke models

Compound: CC[C@H](C)C(=O)O[C@H]1C[C@@H](C)C=C2C=C[C@H](C)[C@H](CC[C@@H]3C[C@@H](O)CC(=O)O3)[C@H]21 [lovastatin]
- effect on adrenal and gonadal steroidogenesis [1]: no effect on adrenal and gonadal steroidogenesis
- testicular endocrine function [2]: reduction in testicular endocrine function

Compound: C=C(C)[C@@H]1CCC(C)=C[C@H]1c1c(O)cc(CCCCC)cc1O [CBD, Cannabidiol]
- decrease of blood pressure (600 mg single dose, nine healthy male volunteers): about 6 mm Hg
- resting blood pressure and blood pressure response to stress (single dose, particularly cold stress, post-test periods): reduces resting blood pressure and the blood pressure response to stress
- abuse or dependence potential [3]: no effects indicative of any abuse or dependence potential

Compound: CCCCCc1cc(O)c2c(c1)OC(C)(C)[C@@H]1CCC(C)=C[C@@H]21 [THC, (−)-trans-Δ^9-tetrahydrocannabinol]
- HR [4]: increased HR
- BP and heart rate ([5]; acute dosing, anaesthetised animals, conscious animals and animal models of stress or hypertension): reduced BP and heart rate
- BF in large arteries ([5]; chronic dosing, anaesthetised animals): increased BF in large arteries
- BP ([5]; chronic dosing, models of stress or hypertension): reduced BP
- cerebral BF [6]: increased cerebral BF
